# According to patent US7883687B2, “15O-labeled monosaccharide and producing method thereof” (Astellas Pharma Inc., priority 2004, dated 2011):
# Experiment: PET imaging in rat (Planar Positron Imaging System)
# Conditions: injected from tail vein, integrated PET image from 15 min to 30 min after administration (FIG. 4A, 4B)
# Method: Hydroxylation of 2,6-dideoxy-6-iodo-D-glucose and 6-iodo-6-deoxy-D-glucose was performed in the glass filter reactor as shown in FIG. 1. Sep-Pak cartridges were purchased from Waters. The cyclotron is OSCAR-12 (NKK/Oxford). The target gas consisted of 1.5% O2 in ^15N2. PET scans were obtained on Planar Positron Imaging System (Hamamatsu Photonics K.K.).
# A solution of 2,6-dideoxy-6-iodo-D-glucose (274 mg, 1.0 mmol), tributyltin hydride (807 μl, 3.0 mmol) and AIBN (4.0 mg, 0.025 mmol) in PhCF3 (20.0 ml)/C10F18 (4.5 ml)/2-BuOH (3.0 ml) was placed in the reactor, which was on the automated synthetic apparatus (FIG. 3). Proton bombardment (beam current 50 μA) on target gas started (N2/O2=98.5/1.5, target gas pressure=6 kg/cm^2). The beginning of the bombardment was defined as 0 sec for convenience. Cold gas (N2/O2=[…], 180 ml/min) was provided and heating with temperature-controlled air (80° C.) started simultaneously at 2 min 40 sec. At 4.0 min, the target gas was evacuated from the targeting area in the cyclotron system (20 ml/min). The target gas was mixed with cold N2/O2 gas (target gas/N2/O2=20/177/3, 200 ml/min), and the resulting gas was then supplied to the reaction vessel. […] At 5 min 20 sec, the bombardment stopped. However, evacuation of the target gas continued. Triphenylphosphine (262 mg, 1.0 mmol in 1.5 ml of PhCF3) was added at 6.0 min. […]
structure (smiles),measurement,value
"O=CCC(O)C(O)C(O)C[15OH] [[^15O]2-DG, ^15[O]2-deoxy-D-glucose]",accumulation of tracer in integrated PET image,"accumulation of [^15O]2-DG in heart, kidney and bladder"
